# Results taken from patent publication US20130157954A1, “METHODS FOR TREATMENT OR PROPHYLAXIS OF KIDNEY OR LIVER DYSFUNCTION” (NPS PHARMACEUTICALS, INC., priority 2010, published 2013).
# Experiment: Example 2: liver biomarkers (albumin, gamma glutamyl transferase, total bilirubin, ALT, AST, ALP) in short bowel syndrome patients, every four weeks for 24 weeks; also sorted by >10% change from baseline
# Assay type: in vivo, Human
# Protocol: To further confirm the results of Example 1, a further study was conducted involving more individuals and additional diagnostic biomarkers. Human patients with short bowel syndrome were divided into two groups: a control group (43 total individuals) to receive placebo, and an experimental group (42 total individuals) to receive teduglutide at 0.05 mg/kg/day throughout the study. Patients were treated by subcutaneous injection of placebo or the appropriate dose of teduglutide. Known biomarkers of liver function were monitored every four weeks, for 24 weeks. The liver biomarkers tested included albumin, gamma glutamyl transferase, total bilirubin, ALT and AST and ALP. Before administration of placebo or teduglutide, diagnostic biomarker levels were tested to establish a baseline for each individual.
# To determine the effect of GLP-2 on the levels of the diagnostic biomarkers, the average level of each biomarker was measured for the placebo and teduglutide treated groups for each visit. Furthermore, the average change from baseline was calculated using the established baseline values. For FIGS. 17-28, p-values were calculated using the t-test.
# P values are provided, which were calculated for each distribution of biomarker changes for each week using the chi-squared test.
# [1] = Endpoint (last assessment after start of treatment), 0.05 mg/kg/d, m = 42
# [2] = Endpoint (last assessment after the start of treatment), 0.05 mg/kg/d
smiles,measurement,setting,value
CC[C@H](C)[C@H](NC(=O)[C@H](Cc1ccccc1)NC(=O)[C@H](CC(=O)O)NC(=O)[C@H](CCCNC(=N)N)NC(=O)[C@H](C)NC(=O)[C@H](C)NC(=O)[C@H](CC(C)C)NC(=O)[C@H](CC(N)=O)NC(=O)[C@H](CC(=O)O)NC(=O)[C@H](CC(C)C)NC(=O)[C@@H](NC(=O)[C@@H](NC(=O)[C@H](CC(N)=O)NC(=O)[C@H](CCSC)NC(=O)[C@H](CCC(=O)O)NC(=O)[C@H](CC(=O)O)NC(=O)[C@H](CO)NC(=O)[C@H](Cc1ccccc1)NC(=O)[C@H](CO)NC(=O)CNC(=O)[C@H](CC(=O)O)NC(=O)CNC(=O)[C@@H](N)Cc1c[nH]cn1)[C@@H](C)O)[C@@H](C)CC)C(=O)N[C@@H](CC(N)=O)C(=O)N[C@@H](Cc1c[nH]c2ccccc12)C(=O)N[C@@H](CC(C)C)C(=O)N[C@H](C(=O)N[C@@H](CCC(N)=O)C(=O)N[C@H](C(=O)N[C@@H](CCCCN)C(=O)N[C@H](C(=O)N[C@H](C(=O)N[C@@H](CC(=O)O)C(=O)O)[C@@H](C)O)[C@@H](C)CC)[C@@H](C)O)[C@@H](C)CC [teduglutide],level of diagnostic biomarkers elevated in liver dysfunction vs placebo cohort,"0.05 mg/kg/day, Table 3, FIGS. 17-20 and 23-28","lower level, on average"
same,likelihood of >10% decrease in liver biomarkers vs placebo,"0.05 mg/kg/day, Table 4",more likely to experience a >10% decrease
same,likelihood of >10% increase in liver biomarkers vs placebo,"0.05 mg/kg/day, Table 4",less likely to experience a >10% increase
same,measured level of albumin relative to placebo cohort,"0.05 mg/kg/day, as treatment progressed, FIGS. 21 and 22",became elevated
same,ALT: subjects Within 10% of Baseline,[1],12 (28.6%) n (%)
same,ALT: subjects with >10% decrease from Baseline,[1],25 (59.5%) n (%)
same,ALT: subjects with >10% increase from Baseline,[1],5 (11.9%) n (%)
same,AST: subjects Within 10% of Baseline,[1],11 (26.2%) n (%)
same,AST: subjects with >10% decrease from Baseline,[1],25 (59.5%) n (%)
same,AST: subjects with >10% increase from Baseline,[1],6 (14.3%) n (%)
same,Albumin: subjects Within 10% of Baseline,[1],40 (95.2%) n (%)
same,Albumin: subjects with >10% decrease from Baseline,[1],2 (4.8%) n (%)
same,Albumin: subjects with >10% increase from Baseline,[1],0 n (%)
same,Alkaline Phosphatase: subjects Within 10% of Baseline,[1],12 (28.6%) n (%)
same,Alkaline Phosphatase: subjects with >10% decrease from Baseline,[1],24 (57.1%) n (%)
same,Alkaline Phosphatase: subjects with >10% increase from Baseline,[1],6 (14.3%) n (%)
same,Bilirubin: subjects Within 10% of Baseline,[1],8 (19.0%) n (%)
same,Bilirubin: subjects with >10% decrease from Baseline,[1],27 (64.3%) n (%)
same,Bilirubin: subjects with >10% increase from Baseline,[1],7 (16.7%) n (%)
same,ALKALINE PHOSPHATASE Change from Baseline Median,[2],−22 U/L
same,"ALT Change from Baseline, Max",[2],21 U/L
same,"ALT Change from Baseline, Median",[2],−4 U/L
same,"ALT Change from Baseline, Min",[2],−60 U/L
same,"ALT Observed Value, Max",[2],149 U/L
same,"ALT Observed Value, Mean",[2],31.0 U/L
same,"ALT Observed Value, Min",[2],7 U/L
same,"AST Change from Baseline, Max",[2],14 U/L
same,"AST Change from Baseline, Mean",[2],−5.4 U/L
same,"AST Change from Baseline, Median",[2],−3 U/L
same,"AST Change from Baseline, Min",[2],−47 U/L
same,"AST Observed Value, Max",[2],77 U/L
same,"AST Observed Value, Mean",[2],27.0 U/L
same,"AST Observed Value, Median",[2],24 U/L
same,"AST Observed Value, Min",[2],11 U/L
same,"Albumin Change from Baseline, Max",[2],3 g/L
same,"Albumin Change from Baseline, Mean",[2],-0.5 g/L
same,"Albumin Change from Baseline, Median",[2],0 g/L
same,"Albumin Change from Baseline, Min",[2],-8 g/L
same,"Albumin Observed Value, Max",[2],48 g/L
same,"Albumin Observed Value, Median",[2],42 g/L
same,"Albumin Observed Value, Min",[2],33 g/L
same,"Alkaline Phosphatase Change from Baseline, Max",[2],33 U/L
same,"Alkaline Phosphatase Change from Baseline, Min",[2],−122 U/L
same,"Alkaline Phosphatase Observed Value, Max",[2],328 U/L
same,"Alkaline Phosphatase Observed Value, Min",[2],49 U/L
same,"Bilirubin Change from Baseline, Max",[2],3.4 µmol/L
same,"Bilirubin Change from Baseline, Min",[2],-26.1 µmol/L
same,"Bilirubin Observed Value, Max",[2],31.3 µmol/L
same,"Bilirubin Observed Value, Min",[2],2.5 µmol/L
same,"Gamma Glutamyl Transferase Change from Baseline, Max",[2],46 U/L
same,"Gamma Glutamyl Transferase Change from Baseline, Median",[2],−6 U/L
same,"Gamma Glutamyl Transferase Change from Baseline, Min",[2],−144 U/L
same,"Gamma Glutamyl Transferase Observed Value, Max",[2],228 U/L
same,"Gamma Glutamyl Transferase Observed Value, Median",[2],42 U/L
same,"Gamma Glutamyl Transferase Observed Value, Min",[2],7 U/L
same,ALKALINE PHOSPHATASE Change from Baseline Median,"Week 2, 0.05 mg/kg/d",−8 U/L
same,"ALT Change from Baseline, Max","Week 2, 0.05 mg/kg/d",48 U/L
same,"ALT Change from Baseline, Mean","Week 2, 0.05 mg/kg/d",−8.9 U/L
same,"ALT Change from Baseline, Median","Week 2, 0.05 mg/kg/d",−5.5 U/L
same,"ALT Change from Baseline, Min","Week 2, 0.05 mg/kg/d",−58 U/L
same,"ALT Observed Value, Max","Week 2, 0.05 mg/kg/d",142 U/L
same,"ALT Observed Value, Min","Week 2, 0.05 mg/kg/d",9 U/L
same,"AST Change from Baseline, Max","Week 2, 0.05 mg/kg/d",22 U/L
same,"AST Change from Baseline, Mean","Week 2, 0.05 mg/kg/d",−3.6 U/L
same,"AST Change from Baseline, Median","Week 2, 0.05 mg/kg/d",−3 U/L
same,"AST Change from Baseline, Min","Week 2, 0.05 mg/kg/d",−21 U/L
same,"AST Observed Value, Max","Week 2, 0.05 mg/kg/d",78 U/L
same,"AST Observed Value, Mean","Week 2, 0.05 mg/kg/d",29.0 U/L
same,"AST Observed Value, Min","Week 2, 0.05 mg/kg/d",11 U/L
same,"Albumin Change from Baseline, Max","Week 2, 0.05 mg/kg/d",3 g/L
same,"Albumin Change from Baseline, Mean","Week 2, 0.05 mg/kg/d",-0.9 g/L
same,"Albumin Change from Baseline, Median","Week 2, 0.05 mg/kg/d",-1 g/L
same,"Albumin Change from Baseline, Min","Week 2, 0.05 mg/kg/d",-5 g/L
same,"Albumin Observed Value, Max","Week 2, 0.05 mg/kg/d",47 g/L
same,"Albumin Observed Value, Median","Week 2, 0.05 mg/kg/d",42 g/L
same,"Albumin Observed Value, Min","Week 2, 0.05 mg/kg/d",35 g/L
same,"Alkaline Phosphatase Change from Baseline, Max","Week 2, 0.05 mg/kg/d",27 U/L
same,"Alkaline Phosphatase Change from Baseline, Min","Week 2, 0.05 mg/kg/d",−76 U/L
same,"Alkaline Phosphatase Observed Value, Max","Week 2, 0.05 mg/kg/d",298 U/L
same,"Alkaline Phosphatase Observed Value, Min","Week 2, 0.05 mg/kg/d",53 U/L
same,"Bilirubin Change from Baseline, Max","Week 2, 0.05 mg/kg/d",8.6 µmol/L
same,"Bilirubin Change from Baseline, Min","Week 2, 0.05 mg/kg/d",-18.2 µmol/L
same,"Bilirubin Observed Value, Max","Week 2, 0.05 mg/kg/d",57.4 µmol/L
same,"Bilirubin Observed Value, Min","Week 2, 0.05 mg/kg/d",2.4 µmol/L
same,"Gamma Glutamyl Transferase Change from Baseline, Max","Week 2, 0.05 mg/kg/d",117 U/L
same,"Gamma Glutamyl Transferase Change from Baseline, Mean","Week 2, 0.05 mg/kg/d",7.4 U/L
same,"Gamma Glutamyl Transferase Change from Baseline, Median","Week 2, 0.05 mg/kg/d",2.5 U/L
same,"Gamma Glutamyl Transferase Change from Baseline, Min","Week 2, 0.05 mg/kg/d",−48 U/L
same,"Gamma Glutamyl Transferase Observed Value, Max","Week 2, 0.05 mg/kg/d",279 U/L
same,"Gamma Glutamyl Transferase Observed Value, Min","Week 2, 0.05 mg/kg/d",11 U/L
same,ALT: subjects Within 10% of Baseline,"Week 2, 0.05 mg/kg/d, m = 40",10 (25.0%) n (%)
same,ALT: subjects with >10% decrease from Baseline,"Week 2, 0.05 mg/kg/d, m = 40",23 (57.5%) n (%)
same,ALT: subjects with >10% increase from Baseline,"Week 2, 0.05 mg/kg/d, m = 40",7 (17.5%) n (%)
same,AST: subjects Within 10% of Baseline,"Week 2, 0.05 mg/kg/d, m = 40",15 (37.5%) n (%)
same,AST: subjects with >10% decrease from Baseline,"Week 2, 0.05 mg/kg/d, m = 40",20 (50.0%) n (%)
same,AST: subjects with >10% increase from Baseline,"Week 2, 0.05 mg/kg/d, m = 40",5 (12.5%) n (%)
same,Albumin: subjects Within 10% of Baseline,"Week 2, 0.05 mg/kg/d, m = 40",37 (92.5%) n (%)
same,Albumin: subjects with >10% decrease from Baseline,"Week 2, 0.05 mg/kg/d, m = 40",3 (7.5%) n (%)
same,Albumin: subjects with >10% increase from Baseline,"Week 2, 0.05 mg/kg/d, m = 40",0 n (%)
same,Alkaline Phosphatase: subjects Within 10% of Baseline,"Week 2, 0.05 mg/kg/d, m = 40",19 (47.5%) n (%)
same,Alkaline Phosphatase: subjects with >10% decrease from Baseline,"Week 2, 0.05 mg/kg/d, m = 40",15 (37.5%) n (%)
same,Alkaline Phosphatase: subjects with >10% increase from Baseline,"Week 2, 0.05 mg/kg/d, m = 40",6 (15.0%) n (%)
